Experimental data taken from PMC8778187, “A New Oxygen Containing Pyclen-Type Ligand as a Manganese(II) Binder for MRI and ^52Mn PET Applications: Equilibrium, Kinetic, Relaxometric, Structural and Radiochemical Studies” (Molecules, 2022).
Where two headings read alike, the source gives them in different places. Marks after values point to notes of the source that are not given here.

Legend:
[1] = T = 25 °C, I = 0.15 M NaCl, ref 16 (PC2A ligands), 12 (DO2A ligands), cited from earlier work
[2] = Mg^2+ complex, cited from earlier work
[3] = Ca^2+ complex, cited from earlier work
[4] = T = 25 °C, ref 16 (PC2A ligands), 12 (DO2A ligands), cited from earlier work; for pMn: pMn = −log(Mn(II)free), cMn^2+ = cligand = 1 × 10^−5 M, pH = 7.4
[5] = Zn^2+ complex, T = 25 °C, I = 0.15 M NaCl, ref 16 (PC2A ligands), 12 (DO2A ligands), cited from earlier work
[6] = Cu^2+ complex; T = 25 °C, I = 0.15 M NaCl; ref 16 (PC2A ligands), 12 (DO2A ligands), 20 (H21,7-O2DO2A); cited from earlier work
[7] = Mn(II) complex, 25 °C, pH = 7.4, cited from earlier work
[8] = cited from earlier work
[9] = pH = 6.0, 25 equivalents of Zn(II), 37 °C, cited from earlier work
[10] = cited from earlier work; remark: listed apart in the source
[11] = Stability test of 52Mn-labeled complexes in rat serum (radio-TLC); assay type: in vitro ADME; settings: room temperature, up to 7 days
Procedure: Stability test of [[^52Mn]Mn(3,9-PC2A)] and [[^52Mn]Mn(3,9-OPC2A)] in rat serum. 100 µL aqueous solution of each radiolabeled complex (~7.5 MBq) was mixed with 100 uL of rat serum, and incubated at room temperature. Aliquots were taken and analyzed at the beginning and after 1, 2, 3, and 20 h, and 2, 3, and 7 days later, by the radio-TLC method, as explained mentioned above.

[12] = EDTA challenge of 52Mn-labeled complexes (transchelation); assay type: physicochemical; settings: 0.2 M H4EDTA (pH 7.4), room temperature, 7 days
Procedure: EDTA challenge of [[^52Mn]Mn(3,9-PC2A)] and [[^52Mn]Mn(3,9-OPC2A)]. 50 µL aqueous solution of each radiolabeled complex (~3.75 MBq) was incubated with 50 µL of 0.2 M EDTA (pH 7.4) solution at room temperature. Aliquots were taken and analyzed by the radio-TLC method, as mentioned above, at the beginning and after 1, 2, 3, and 20 h, and 2, 3, and 7 days incubation time.

[13] = Metal challenge of 52Mn-labeled complexes (transmetalation); assay type: physicochemical; settings: ZnCl2, CuCl2, MgCl2, CaCl2 mixture, room temperature, 7 days
Procedure: Metal challenge of [[^52Mn]Mn(3,9-PC2A)] and [[^52Mn]Mn(3,9-OPC2A)]. 49 µL aqueous solution of each radiolabeled complex (~3.75 MBq) was incubated with a 1:1 mixture of 0.1 mM ZnCl2 and 0.01 mM CuCl2 (1 µL), and a 1:1 mixture of 1.02 mM MgCl2 and 2.28 mM CaCl2 (50 µL) at room temperature. Samples were taken from the mixtures at the beginning and after 1, 2, 3, and 20 h, and 2, 3, and 7 days later. For the analysis of the samples, the above-mentioned radio-TLC method was applied.

[14] = Octanol/water partition coefficient (logP) of 52Mn-labeled complexes; assay type: physicochemical
Procedure: Determination of logP values of the [[^52Mn]Mn(3,9-PC2A)] and [[^52Mn]Mn(3,9-OPC2A)] chelates. 100 µL aqueous solution of each radiolabeled complex (~7.5 MBq) was added to 100 µL of octanol. The mixture was shaken with a vortex shaker (5 min, 1000 rpm) and centrifuged (5 min, 10,000 rpm). A total of 3 × 20 µL from the octanol and 3 × 20 µL from the water were pipetted into test tube, respectively. The radioactivity of the samples was measured with a gamma detector.

O=C(O)CN1CCNCCN(CC(=O)O)Cc2cccc(n2)C1 [H23,9-PC2A, pyclen-3,9-diacetate]
log K1^H ([1]; 20 (H21,7-O2DO2A)): 12.25
log K2^H ([1]; 20 (H21,7-O2DO2A)): 5.97
log K3^H ([1]; 20 (H21,7-O2DO2A)): 3.47
log K4^H [1]: 1.99
Σlog Κ2^H ([1]; log K1^H + log K2^H, 20 (H21,7-O2DO2A)): 18.22
log KMnHL ([2]; T = 25 °C, I = 0.15 M NaCl): 5.91
log KMnL ([2]; T = 25 °C, I = 0.15 M NaCl, ref 16 (PC2A ligands), 20 (H21,7-O2DO2A)): 9.84
log KMnL ([2]; value in parenthesis): 8.4
log KMnHL ([3]; T = 25 °C, I = 0.15 M NaCl): 5.08
log KMnL ([3]; T = 25 °C, I = 0.15 M NaCl, ref 16 (PC2A ligands), 12 (DO2A ligands), 20 (H21,7-O2DO2A)): 9.92
log KMnL ([3]; value in parenthesis): 10.0
log KMnL ([4]; Mn^2+ complex, I = 0.15 M NaCl, 20 (H21,7-O2DO2A)): 17.09
log KMnHL ([4]; Mn^2+ complex, I = 0.15 M NaCl): 2.14
pMn ([4]; 20 (H21,7-O2DO2A)): 8.64
log KMnL ([5]; 20 (H21,7-O2DO2A)): 19.49
log KMnHL [5]: 2.74
log KMnHL [6]: 2.12 ^g
log KMnL [6]: 23.58 ^g
r2p ([7]; 0.49 T): 3.96 mM⁻¹ s⁻¹
r1p ([7]; 0.49 T, ref 16 (PC2A ligands), 12 (DO2A ligands), 20 (H21,7-O2DO2A)): 2.91 mM⁻¹ s⁻¹
r1p ([7]; 1.41 T): 2.24 mM⁻¹ s⁻¹
r2p ([7]; 1.41 T): 4.82 mM⁻¹ s⁻¹

O=C([O-])CN1CCNCCN(CC(=O)[O-])Cc2cccc(n2)C1.[Mn+2] [[Mn(3,9-PC2A)]]
pMn ([4]; 20 (H21,7-O2DO2A)): 8.64
r1^298_20 MHz ([8]; 20 MHz, 298 K): 2.91 mM⁻¹ s⁻¹
ΔH^‡ ([8]; activation enthalpy of water exchange): 37.5 kJmol^−1
q ([8]; hydration number, fixed during the fitting procedure): 1
kex^298 ([8]; water exchange rate with bulk solvent): 1.26e+08 s⁻¹
kex^298 ([8]; water exchange rate): 12.6 10^7s^−1
kobs ([9]; previously reported): (3.28 ± 0.03) × 10^−4 s^−1
t1/2 (h) at pH = 7.4 ([10]; extrapolated to pH = 7.4, ref 16 (PC2A complexes), 12, 13, 20): 21.0 h
k3 ([10]; metal assisted dissociation, T = 25 °C, I = 0.15 M NaCl): 0.036 M⁻¹ s⁻¹
k1 ([10]; proton assisted dissociation, T = 25 °C, I = 0.15 M NaCl, ref 16 (PC2A complexes), 12, 13, 20): 221 M⁻¹ s⁻¹
KMnL x H ([10]; protonation constant of the complex from kinetic fit, T = 25 °C, I = 0.15 M NaCl): 3.6 × 10^3
KML x Cu ([10]; stability constant of dinuclear intermediate, T = 25 °C, I = 0.15 M NaCl, unit assumed): 26 M⁻¹

O=C([O-])CN(CC(=O)[O-])C1CCCCC1N(CC(=O)[O-])Cc1ccccn1.[Mn+2] (stereo not shown) [[Mn(PyC3A)]]
kobs [9]: (6.76 ± 0.04) × 10^−4 s^−1

O=C([O-])CN1CCOCCN(CC(=O)[O-])Cc2cccc(n2)C1.[52Mn+2] [[[^52Mn]Mn(3,9-OPC2A)]]
stability in rat serum [11]: remained intact even after seven days
transchelation in H4EDTA challenge [12]: slower and was not completed after seven days
complex dissociated in metal challenge [13]: about 30%
logP [14]: −2.56

O=C([O-])CN1CCNCCN(CC(=O)[O-])Cc2cccc(n2)C1.[52Mn+2] [[[^52Mn]Mn(3,9-PC2A)]]
stability in rat serum [11]: remained intact even after seven days
transchelation in H4EDTA challenge [12]: transchelation was complete
inertness in metal challenge [13]: stayed intact
logP [14]: −2.51
